Results published in patent US12304912B2, “Fused bicyclic RAF inhibitors and methods for use thereof” (Jazz Pharmaceuticals Ireland Limited, priority 2020, dated 2025).
≈ marks a conversion by molar mass, not a printed value. Where two headings read alike, the source gives them in different places.

Key:
[1] = Solubility (Sol), medium not stated; format: physicochemical; details: cells not marked (FESSIF)
[2] = Microsomal stability assay, mouse liver microsomes (MLM); format: in vitro ADME; details: 0.5 mg/mL protein, 1 μM substrate
Protocol: (§1) Microsomal Stability Assay
(§2) The stability studies were performed manually using the substrate depletion approach. Test compounds were incubated at 37° C. with cryo-preserved mouse or human liver microsomes (Corning) at a protein concentration of 0.5 mg·mL^−1 and a final substrate concentration of 1 μM. Aliquots were removed from the incubation at defined timepoints and the reaction was terminated by adding to ice-cold organic solvent. Compound concentrations were determined by LC-MS/MS analysis. The natural log of the percentage of compound remaining was plotted against each time point and the slope determined. The half-life (t1/2) and CLint were calculated using Equations 1 and 2, respectively.
(§3) HLM (human liver microsomes) and MLM (mouse liver microsomes) stability assay results are described in Tables 1-2.

[3] = Plasma protein binding assay, human plasma (hPPB); format: in vitro ADME; details: 5 μM, equilibrium dialysis 4 hours at 37° C.
Protocol: (§4) Plasma Protein Binding Assay The plasma protein binding was determined by the equilibrium dialysis method. A known concentration of compound (5 μM) in previously frozen human or mouse plasma (Sera Labs) was dialysed against phosphate buffer using a RED device (Life Technologies) for 4 hours at 37° C. The concentration of compound in the protein containing (PC) and protein free (PF) sides of the dialysis membrane were determined by LC-MS/MS and the % free compound was determined by equation 4. Data analysis was performed using Excel (Microsoft, USA). % free=(1−((PC−PF)/PC))×100 (4) hPPB (human plasma protein binding) and mPPB (mouse plasma protein binding) results are described in Tables 1-2.

[4] = Microsomal stability assay, human liver microsomes (HLM); format: in vitro ADME; details: 0.5 mg/mL protein, 1 μM substrate, 37° C.
Protocol: as §1, §2, §3

[5] = Plasma protein binding assay, mouse plasma (mPPB); format: in vitro ADME; details: 5 μM, equilibrium dialysis 4 hours at 37° C.
Protocol: as §4

[6] = system: constitutive ERK phosphorylation in HCT-116 cells; test: HCT-116 AlphaLISA SureFire pERK1/2 cellular assay; format: cell-based, human; details: Homo sapiens, read-out: pERK HCT116 (2 hr) Abs pIC50 (converted)
Protocol: HCT-116 AlphaLISA SureFire pERK1/2 Cellular Assay […] […] Assay read outs took place 2 or 24 hours after dosing with compounds. On the first day, HCT-116 cells were harvested, resuspended in growth medium (McCoys5A with Glutamax (Life Technologies 36600021) and 10% heat-inactivated fetal bovine serum (Sigma F9665)), and counted. Cells were plated in 100 μl per well in each well of a 96-well culture dish (Sigma CLS3598) to a final density of 30,000 (2 hr read) or 15,000 (24 hr read) cells per well and incubated over night at 37° C. and 5% CO2. On day 2, the growth medium was exchanged for dosing medium (McCoys5A with Glutamax (Life Technologies 36600021) and 1% heat-inactivated fetal bovine serum (Sigma F9665)) and the cells were dosed with compounds to produce a 10-point dose response, where the top concentration was 1 μM and subsequent concentrations were at 1/3 log dilution intervals. A matched DMSO control was included. The cells were subsequently incubated for either 2 or 24 hours at 37° C. and 5% CO2. After incubation, media was removed and the cells were incubated with lysis buffer containing phosphatase inhibitors for 15 minutes at room temperature. Cell lysates were transferred to a 12 area 96 well white Optiplate™ (Perkin Elmer 6005569) and incubated with anti-mouse IgG acceptor beads, a biotinylated anti-ERK1/2 rabbit antibody recognizing both phosphorylated and non-phosphorylated ERK1/2, a mouse antibody targeted to the Thr202/Tyr204 epitope and recognizing phosphorylated ERK proteins only, and streptavidin-coated donor beads. The biotinylated antibody binds to the streptavidin-coated donor beads and the phopsho-ERK1/2 antibody binds to the acceptor beads. […] Both antibodies bound to phosphorylated ERK proteins, bringing the donor and acceptor beads into close proximity. All data were analyzed using the Dotmatics or GraphPad Prism software packages. Inhibition of ERK phosphorylation was assessed by determination of the absolute IC50 value, which is defined as the concentration of compound required to decrease the level of phosphorylated ERK proteins by 50% when compared to DMSO control.

FeSSIF solubility assay = format: physicochemical; details: fed state simulated intestinal fluid (FeSSIF), thermodynamic from solid, pH 5 acetate buffer, 37° C., read-out: FESSIF Sol
Protocol: FeSSIF Solubility Assay 1 mL of fed state simulated intestinal fluid (FeSSIF), prepared using FaSSIF/FeSSIF/FaSSGF powder (Biorelevant.com) and pH 5 acetate buffer, was added to 1.0 mg of compound and then incubated for 24 h (Bioshake iQ, 650 rpm, 37° C.). Following filtration under positive pressure, the concentration of compound in solution was assessed by LC-UV in comparison to the response for a calibration standard of known concentration (250 μM). FeSSIF solubility results are described in Tables 1-2.

[7] = HCT-116, HCT116 cells, 2 hr, Abs

| Sol [1] [mg/L] | microsomal CLint at 1 μM [2] [µL/min/mg] | hPPB (% free) [3] [% free] | microsomal CLint at 1 μM [4] [µL/min/mg] | mPPB (% free) [5] [% free] | IC50 [6, 7] [µM] | microsomal CLint at 1 μM ([2]; 37° C.) [µL/min/mg] | solubility thermodynamic at 24 h (FeSSIF solubility assay) [µg/mL] | Compound | IC50 ([6]; HCT-116, 2 h) [µM] |
| --- | --- | --- | --- | --- | --- | --- | --- | --- | --- |
| <1.2 | 15.4 | – | – | – | – | – | – | O=C1CCc2c(Oc3ccc4c(c3)CC(c3cc(-c5ccc(Cl)cc5)n[nH]3)CO4)ccnc2N1 (stereo not drawn) [Compound 39] | – |
| <1.2 | 23.2 | – | – | – | – | – | – | COc1ccc(-c2cc(C3COc4ccc(Oc5ccnc6c5CCC(=O)N6)cc4C3)[nH]n2)cc1 (stereo not drawn) [Compound 43] | – |
| – | – | 0.6 | 74.2 | 0.9 | 0.724 | 35.8 | < 1.2 | O=C1CCc2c(Oc3ccc4c(c3)CC(c3nc(-c5ccnc(C6CC6)c5)c[nH]3)CO4)ccnc2N1 (stereo not drawn) [Compound 119, 5-[3-[4-(2-cyclopropyl-4-pyridyl)-1H-imidazol-2-yl]chroman-6-yl]oxy-3,4-dihydro-1H-1,8-naphthyridin-2-one] | – |
| – | – | 0.9 | 190 | 0.6 | 0.955 | 89 | 1.3 (≈ 2.7 µM) | CC(C)c1cc(-c2c[nH]c(C3COc4ccc(Oc5ccnc6c5CCC(=O)N6)cc4C3)n2)ccn1 (stereo not drawn) [Compound 120, 5-[3-[4-(2-isopropyl-4-pyridyl)-1H-imidazol-2-yl]chroman-6-yl]oxy-3,4-dihydro-1H-1,8-naphthyridin-2-one] | – |
| – | – | 0.4 | 207 | 0.4 | > 1 | 137 | 38.2 (≈ 77.1 µM) | CC(C)(C)c1cc(-c2c[nH]c(C3COc4ccc(Oc5ccnc6c5CCC(=O)N6)cc4C3)n2)ccn1 (stereo not drawn) [Compound 121, 5-[3-[4-(2-tert-butyl-4-pyridyl)-1H-imidazol-2-yl]chroman-6-yl]oxy-3,4-dihydro-1H-1,8-naphthyridin-2-one] | – |
| – | – | – | – | – | > 1 | – | 661 (≈ 1440 µM) | CC(C)N1CCc2nc(C3COc4ccc(Oc5ccnc6c5CCC(=O)N6)cc4C3)[nH]c2C1 (stereo not drawn) [Compound 133, 5-[3-(5-isopropyl-3,4,6,7-tetrahydroimidazo[4,5-c]pyridin-2-yl)chroman-6-yl]oxy-3,4-dihydro-1H-1,8-naphthyridin-2-one] | – |
| – | – | – | – | – | > 1 | – | 135 (≈ 309 µM) | c1ccc(-c2c[nH]c(C3COc4ccc(Oc5ccnc(NC6CCC6)c5)cc4C3)n2)cc1 (stereo not drawn) [Compound 142, N-cyclobutyl-4-[3-(4-phenyl-1H-imidazol-2-yl)chroman-6-yl]oxy-pyridin-2-amine] | – |
| – | – | 1.0 | 19.8 | 0.5 | > 1 | 34.4 | < 1 | O=C1CCc2c(Oc3ccc4c(c3)CN(c3nc5ccccc5[nH]3)CC4)ccnc2N1 [Compound 159, 5-[[2-(1H-benzimidazol-2-yl)-3,4-dihydro-1H-isoquinolin-7-yl]oxy]-3,4-dihydro-1H-1,8-naphthyridin-2-one] | – |
| – | – | – | – | – | 0.562 | – | < 1.1 | CCCc1ccc2[nH]c(N3CCc4ccc(Oc5ccnc6c5CCC(=O)N6)cc4C3)nc2c1 [Compound 161, 5-[[2-(5-propyl-1H-benzimidazol-2-yl)-3,4-dihydro-1H-isoquinolin-7-yl]oxy]-3,4-dihydro-1H-1,8-naphthyridin-2-one] | – |
| – | – | – | – | – | > 1 | – | 13.7 (≈ 28.1 µM) | O=C1CCc2c(Oc3ccc4c(c3)CN(c3nc5cc(-c6ccccc6)ccc5[nH]3)CC4)ccnc2N1 [Compound 162, 5-[[2-(5-phenyl-1H-benzimidazol-2-yl)-3,4-dihydro-1H-isoquinolin-7-yl]oxy]-3,4-dihydro-1H-1,8-naphthyridin-2-one] | – |
| – | – | – | – | – | > 1 | – | < 1.3 | Cc1cc(-c2ccc3[nH]c(N4CCc5ccc(Oc6ccnc7c6CCC(=O)N7)cc5C4)nc3c2)n(C)n1 [Compound 163] | – |

| Compound | Sol [1] [mg/L] | microsomal CLint at 1 μM [2] [µL/min/mg] | hPPB (% free) [3] [% free] | microsomal CLint at 1 μM [4] [µL/min/mg] | mPPB (% free) [5] [% free] | IC50 [6, 7] [µM] | microsomal CLint at 1 μM ([2]; 37° C.) [µL/min/mg] | solubility thermodynamic at 24 h (FeSSIF solubility assay) [µg/mL] | IC50 ([6]; HCT-116, 2 h) [µM] |
| --- | --- | --- | --- | --- | --- | --- | --- | --- | --- |
| CC(=O)N1CCc2nc(C3COc4ccc(Oc5ccnc6c5CCC(=O)N6)cc4C3)[nH]c2C1 (stereo not drawn) [Compound 135, 5-[3-(5-acetyl-3,4,6,7-tetrahydroimidazo[4,5-c]pyridin-2-yl)chroman-6-yl]oxy-3,4-dihydro-1H-1,8-naphthyridin-2-one] | – | – | – | – | – | – | – | 33.2 (≈ 72.3 µM) | > 1 |
| CC(C(=O)Nc1cc(Oc2ccc3c(c2)CC(c2nc(-c4ccccc4)c[nH]2)CO3)ccn1)N1CCOCC1 (stereo not drawn) [Compound 150, 2-morpholino-N-[4-[3-(4-phenyl-1H-imidazol-2-yl)chroman-6-yl]oxy-2-pyridyl]propanamide] | – | – | – | – | – | – | – | 235 (≈ 448 µM) | > 1 |
